Experimental data as given in ChEMBL document CHEMBL5291721, “A preclinical secondary pharmacology resource illuminates target-adverse drug reaction associations of marketed drugs” (Nat Commun, 2023).

Legend:
D(3) dopamine receptor = D(3) dopamine receptor (Homo sapiens, UniProt P35462)
[1] = target: T1, Alpha-2C adrenergic receptor (Homo sapiens, UniProt P18825); type: functional
T1 sequence (P18825 whole entry): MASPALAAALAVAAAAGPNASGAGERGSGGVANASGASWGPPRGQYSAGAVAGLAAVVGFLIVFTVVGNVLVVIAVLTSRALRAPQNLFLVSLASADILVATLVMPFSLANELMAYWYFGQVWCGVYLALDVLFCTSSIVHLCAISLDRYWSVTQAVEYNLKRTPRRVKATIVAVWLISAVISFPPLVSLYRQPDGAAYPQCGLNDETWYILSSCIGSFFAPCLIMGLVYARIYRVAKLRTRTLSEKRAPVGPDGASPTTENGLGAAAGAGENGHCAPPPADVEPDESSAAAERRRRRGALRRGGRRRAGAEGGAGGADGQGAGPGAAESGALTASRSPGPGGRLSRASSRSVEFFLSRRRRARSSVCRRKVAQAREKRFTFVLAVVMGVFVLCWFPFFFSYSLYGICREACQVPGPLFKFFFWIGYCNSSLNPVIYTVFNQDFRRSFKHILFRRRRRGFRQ

[2] = target: T2, Neuropeptide Y receptor type 1 (Homo sapiens, UniProt P25929)
T2 sequence (P25929 whole entry): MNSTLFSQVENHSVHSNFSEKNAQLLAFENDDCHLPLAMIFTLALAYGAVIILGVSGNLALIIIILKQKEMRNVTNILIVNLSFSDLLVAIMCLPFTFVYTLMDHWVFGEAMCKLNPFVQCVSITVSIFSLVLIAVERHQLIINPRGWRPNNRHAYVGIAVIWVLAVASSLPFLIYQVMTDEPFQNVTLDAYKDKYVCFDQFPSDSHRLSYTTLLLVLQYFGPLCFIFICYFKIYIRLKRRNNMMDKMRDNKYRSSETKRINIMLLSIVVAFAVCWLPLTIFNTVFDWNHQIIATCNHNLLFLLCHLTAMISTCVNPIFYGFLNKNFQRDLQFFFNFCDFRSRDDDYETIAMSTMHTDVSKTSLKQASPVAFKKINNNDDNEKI

[3] = target: Gamma-aminobutyric acid receptor subunit alpha-1 (Rattus norvegicus, UniProt P62813)
[4] = target: T3, Alpha-1A adrenergic receptor (Homo sapiens, UniProt P35348); type: functional, cell-based
T3 sequence (P35348 whole entry): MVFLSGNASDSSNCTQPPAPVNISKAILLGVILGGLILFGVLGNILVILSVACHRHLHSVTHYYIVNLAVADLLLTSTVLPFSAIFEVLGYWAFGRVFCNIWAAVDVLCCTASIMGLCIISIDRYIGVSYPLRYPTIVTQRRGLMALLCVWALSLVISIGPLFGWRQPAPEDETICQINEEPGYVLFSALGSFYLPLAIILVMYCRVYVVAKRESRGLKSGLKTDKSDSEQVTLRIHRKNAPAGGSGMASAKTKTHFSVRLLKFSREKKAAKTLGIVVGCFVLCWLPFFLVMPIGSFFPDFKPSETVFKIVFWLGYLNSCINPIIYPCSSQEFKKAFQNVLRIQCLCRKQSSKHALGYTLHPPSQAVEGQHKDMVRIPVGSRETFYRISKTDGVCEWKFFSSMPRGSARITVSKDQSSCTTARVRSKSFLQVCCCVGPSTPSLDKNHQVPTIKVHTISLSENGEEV

[5] = target: T4, Amine oxidase [flavin-containing] A (Homo sapiens, UniProt P21397); type: functional
T4 sequence (P21397 whole entry): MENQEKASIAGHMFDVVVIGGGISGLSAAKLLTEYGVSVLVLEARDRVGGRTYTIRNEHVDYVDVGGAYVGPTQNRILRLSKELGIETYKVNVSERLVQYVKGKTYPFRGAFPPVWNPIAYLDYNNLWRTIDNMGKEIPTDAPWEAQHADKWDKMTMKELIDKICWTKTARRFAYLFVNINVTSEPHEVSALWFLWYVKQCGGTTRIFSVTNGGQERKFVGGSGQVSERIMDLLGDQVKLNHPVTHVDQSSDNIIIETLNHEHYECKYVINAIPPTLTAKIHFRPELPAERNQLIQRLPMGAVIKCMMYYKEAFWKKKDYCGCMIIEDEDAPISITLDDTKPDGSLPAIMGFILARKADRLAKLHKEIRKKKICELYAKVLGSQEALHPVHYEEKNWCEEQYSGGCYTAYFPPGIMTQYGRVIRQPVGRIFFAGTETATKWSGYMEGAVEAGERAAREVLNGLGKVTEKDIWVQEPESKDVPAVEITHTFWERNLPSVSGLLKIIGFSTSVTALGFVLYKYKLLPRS

[6] = target: Kappa-type opioid receptor (Homo sapiens, UniProt P41145)
Mu-type opioid receptor = Mu-type opioid receptor (Homo sapiens, UniProt P35372)
[7] = target: T5, 5-hydroxytryptamine receptor 1A (Homo sapiens, UniProt P08908); type: functional, cell-based
T5 sequence (P08908 whole entry): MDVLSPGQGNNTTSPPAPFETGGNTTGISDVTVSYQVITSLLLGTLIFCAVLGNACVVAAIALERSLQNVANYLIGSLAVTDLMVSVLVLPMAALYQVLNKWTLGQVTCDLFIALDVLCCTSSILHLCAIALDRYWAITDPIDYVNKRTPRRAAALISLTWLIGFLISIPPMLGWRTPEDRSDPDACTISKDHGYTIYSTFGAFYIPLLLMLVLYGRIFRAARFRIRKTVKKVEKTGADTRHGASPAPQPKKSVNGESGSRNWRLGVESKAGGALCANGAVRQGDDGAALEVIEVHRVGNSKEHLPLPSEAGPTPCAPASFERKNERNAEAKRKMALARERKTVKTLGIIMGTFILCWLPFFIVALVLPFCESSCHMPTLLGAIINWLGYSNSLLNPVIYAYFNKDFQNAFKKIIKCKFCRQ

[8] = target: Beta-2 adrenergic receptor (Homo sapiens, UniProt P07550)
[9] = target: Delta-type opioid receptor (Homo sapiens, UniProt P41143)
Further: assay procedure not described here.

Delta-type opioid receptor, sequence (P41143 whole entry): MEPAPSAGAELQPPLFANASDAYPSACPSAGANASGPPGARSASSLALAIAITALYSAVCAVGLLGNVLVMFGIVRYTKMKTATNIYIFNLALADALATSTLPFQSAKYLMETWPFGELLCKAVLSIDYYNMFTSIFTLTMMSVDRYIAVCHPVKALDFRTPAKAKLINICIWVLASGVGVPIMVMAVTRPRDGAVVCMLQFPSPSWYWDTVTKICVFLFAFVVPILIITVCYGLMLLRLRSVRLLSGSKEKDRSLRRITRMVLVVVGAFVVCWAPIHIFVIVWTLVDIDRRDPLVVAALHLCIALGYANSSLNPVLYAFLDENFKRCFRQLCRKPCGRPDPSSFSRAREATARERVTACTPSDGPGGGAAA
Kappa-type opioid receptor, sequence (P41145 whole entry): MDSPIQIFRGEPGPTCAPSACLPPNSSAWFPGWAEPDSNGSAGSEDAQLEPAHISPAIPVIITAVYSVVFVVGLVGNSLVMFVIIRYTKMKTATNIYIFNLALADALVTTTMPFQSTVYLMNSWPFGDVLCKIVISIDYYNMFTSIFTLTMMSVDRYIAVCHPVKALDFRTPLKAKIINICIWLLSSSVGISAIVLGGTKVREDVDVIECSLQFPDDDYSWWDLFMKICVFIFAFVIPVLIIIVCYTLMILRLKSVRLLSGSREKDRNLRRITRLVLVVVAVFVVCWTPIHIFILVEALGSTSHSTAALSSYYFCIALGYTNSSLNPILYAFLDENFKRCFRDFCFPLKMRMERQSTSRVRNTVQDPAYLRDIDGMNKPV
Gamma-aminobutyric acid receptor subunit alpha-1, sequence (P62813 whole entry): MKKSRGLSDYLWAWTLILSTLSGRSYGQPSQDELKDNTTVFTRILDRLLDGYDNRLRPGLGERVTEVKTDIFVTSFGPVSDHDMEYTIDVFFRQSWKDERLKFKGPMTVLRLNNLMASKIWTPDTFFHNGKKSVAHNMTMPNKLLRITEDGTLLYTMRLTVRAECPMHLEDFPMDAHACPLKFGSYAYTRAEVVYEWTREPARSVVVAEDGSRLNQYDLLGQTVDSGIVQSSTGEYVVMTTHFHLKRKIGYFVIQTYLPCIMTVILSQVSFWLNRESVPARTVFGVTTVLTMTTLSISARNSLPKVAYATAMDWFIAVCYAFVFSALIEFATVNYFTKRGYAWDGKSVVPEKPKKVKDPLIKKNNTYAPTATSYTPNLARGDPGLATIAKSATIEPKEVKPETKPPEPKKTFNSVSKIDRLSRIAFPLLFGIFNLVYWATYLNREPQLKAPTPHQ
D(3) dopamine receptor, sequence (P35462 whole entry): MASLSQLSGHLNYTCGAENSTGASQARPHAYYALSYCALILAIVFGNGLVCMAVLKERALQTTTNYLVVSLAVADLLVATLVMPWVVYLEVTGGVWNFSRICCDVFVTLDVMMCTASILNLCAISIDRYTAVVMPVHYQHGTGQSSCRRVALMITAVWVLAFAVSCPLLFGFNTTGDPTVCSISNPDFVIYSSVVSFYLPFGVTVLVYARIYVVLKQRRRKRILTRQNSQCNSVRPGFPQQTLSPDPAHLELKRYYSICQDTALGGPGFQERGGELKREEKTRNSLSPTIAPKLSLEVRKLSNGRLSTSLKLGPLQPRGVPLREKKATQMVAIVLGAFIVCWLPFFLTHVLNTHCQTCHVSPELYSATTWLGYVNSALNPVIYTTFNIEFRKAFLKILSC
Mu-type opioid receptor, sequence (P35372 whole entry): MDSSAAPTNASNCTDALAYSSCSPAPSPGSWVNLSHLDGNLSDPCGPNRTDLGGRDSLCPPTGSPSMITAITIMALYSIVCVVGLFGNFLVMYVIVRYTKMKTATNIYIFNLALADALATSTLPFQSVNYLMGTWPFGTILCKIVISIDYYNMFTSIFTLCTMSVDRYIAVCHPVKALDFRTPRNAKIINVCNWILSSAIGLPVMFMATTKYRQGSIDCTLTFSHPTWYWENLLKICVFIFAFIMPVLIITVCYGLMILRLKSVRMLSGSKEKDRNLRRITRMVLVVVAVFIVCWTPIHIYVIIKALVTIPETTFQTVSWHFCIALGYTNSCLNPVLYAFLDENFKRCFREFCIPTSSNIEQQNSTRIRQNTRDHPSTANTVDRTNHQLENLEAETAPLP
Beta-2 adrenergic receptor, sequence (P07550 whole entry): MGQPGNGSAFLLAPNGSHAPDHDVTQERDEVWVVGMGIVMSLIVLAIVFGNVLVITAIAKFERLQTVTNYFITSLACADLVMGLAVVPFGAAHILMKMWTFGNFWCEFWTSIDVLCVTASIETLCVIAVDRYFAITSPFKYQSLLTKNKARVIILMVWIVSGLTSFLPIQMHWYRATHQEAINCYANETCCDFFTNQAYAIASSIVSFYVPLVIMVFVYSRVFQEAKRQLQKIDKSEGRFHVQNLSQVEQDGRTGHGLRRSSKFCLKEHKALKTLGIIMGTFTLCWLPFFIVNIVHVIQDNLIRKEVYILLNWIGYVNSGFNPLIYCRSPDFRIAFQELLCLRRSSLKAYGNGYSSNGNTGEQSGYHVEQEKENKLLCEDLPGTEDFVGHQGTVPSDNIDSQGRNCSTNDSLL

Row | SMILES | AC50 (D(3) dopamine receptor) | AC50 [1] | AC50 [2] | AC50 [3] | AC50 [4] | AC50 [5] | AC50 [6] | AC50 (Mu-type opioid receptor) | AC50 [7] | AC50 [8] | AC50 [9]
1 | CC1NCCOC1c1ccccc1 (stereo unspecified) [PHENMETRAZINE] | > 30 µM | > 10 µM | > 30 µM | > 10 µM | 14 µM | > 10 µM | > 10 µM | > 30 µM | > 10 µM | > 10 µM | > 30 µM
2 | Cc1ccc(-c2ncc(Cl)cc2-c2ccc(S(C)(=O)=O)cc2)cn1 [ETORICOXIB] | > 10 µM | > 10 µM | > 10 µM | > 10 µM | > 30 µM | > 10 µM | > 10 µM | > 10 µM | > 10 µM | > 10 µM | > 10 µM
3 | CC(C)(N)Cc1ccccc1 [PHENTERMINE] | > 30 µM | > 10 µM | > 30 µM | > 10 µM | > 30 µM | > 10 µM | > 10 µM | > 30 µM | > 10 µM | > 10 µM | > 30 µM
4 | Cc1nnc2n1-c1ccc(Cl)cc1C(c1ccccc1)=NC2 [ALPRAZOLAM] | > 10 µM | > 10 µM | > 30 µM | > 10 µM | > 30 µM | > 10 µM | 7.48 µM | > 30 µM | > 10 µM | > 10 µM | > 30 µM
5 | O=C(C[S+]([O-])Cc1ccco1)NC/C=C\COc1cc(CN2CCCCC2)ccn1 (stereo unspecified) [LAFUTIDINE] | > 30 µM | 2.6 µM | > 10 µM | > 10 µM | > 30 µM | > 10 µM | > 10 µM | > 30 µM | > 30 µM | > 10 µM | > 30 µM
6 | CN1C2CCCC1CC(NC(=O)c1nn(C)c3ccccc13)C2 (stereo unspecified) [GRANISETRON] | > 10 µM | > 10 µM | > 30 µM | > 10 µM | > 30 µM | > 10 µM | > 10 µM | > 10 µM | > 10 µM | > 10 µM | > 10 µM
7 | CCN(CC)C(C)C(=O)c1ccccc1 (stereo unspecified) [DIETHYLPROPION] | > 30 µM | > 10 µM | > 30 µM | > 10 µM | > 30 µM | > 10 µM | > 10 µM | > 30 µM | > 10 µM | > 10 µM | > 30 µM
8 | COc1ccc(C(Cl)=C(c2ccc(OC)cc2)c2ccc(OC)cc2)cc1 [CHLOROTRIANISENE] | > 30 µM | > 30 µM | > 30 µM | > 30 µM | > 30 µM | > 30 µM | > 30 µM | > 30 µM | > 10 µM | > 10 µM | > 30 µM
9 | CC(C(=O)O)c1ccc(C(=O)c2ccccc2)s1 (stereo unspecified) [TIAPROFENIC ACID] | 8.6 µM | 15 µM | > 10 µM | > 10 µM | > 30 µM | 18 µM | > 10 µM | > 30 µM | > 10 µM | > 10 µM | > 30 µM
10 | CC1=C(CC(=O)O)c2cc(F)ccc2/C1=C\c1ccc([S+](C)[O-])cc1 (stereo unspecified) | > 30 µM | > 10 µM | > 30 µM | > 10 µM | > 30 µM | > 10 µM | > 10 µM | > 30 µM | > 10 µM | > 10 µM | > 30 µM
11 | C=C(c1ccccc1OCc1cccc(Cl)c1)n1ccnc1 [CROCONAZOLE] | > 30 µM | > 10 µM | > 30 µM | > 10 µM | > 30 µM | > 10 µM | 1.03 µM | > 30 µM | 24 µM | > 30 µM | > 30 µM
